Measured values as given in US4253997A, “Anti-ovulatory decapeptides” (American Home Products Corporation, priority 1979, dated 1981).

Experiments:
ovulation [1] = assay: Anti-ovulatory activity in proestrus rats (oviducts inspected for ova); format: in vivo, Sprague-Dawley CD rats; settings: single administration at 1200 hours of proestrus
Protocol: The product of Example 2 was injected subcutaneously, in corn oil, as a single administration at 1200 hours on the day of proestrus (at least 2.5 hours prior to the commencement of the ovulatory LH surge). The rats were sacrificed on the morning of estrus (the day following proestrus) and the oviducts were inspected for the presence of ova under a dissecting microscope. The number of animals ovulating and the percent inhibition were as follows: […]

LH-RH = settings: in vitro; cited from earlier work
ovulation [2] = settings: administered at noon of proestrus; cited from earlier work
[3] = system: leuteinizing hormone (LH) release; settings: LH-RH = 100 percent; cited from earlier work

## D-(5-Oxoprolyl)-D-phenylalanyl-D-3-(1-naphthyl)-alanyl-L-seryl-L-tyrosyl-D- 3-(1-naphthyl)-alanyl-L-leucyl-L-arginyl-L-prolyl-glycine acetate salt [Example 2]
Ovulation [1]; 375 μg s.c. in corn oil
  number of animals ovulating: 5/6
  percent inhibition of ovulation: 17%
Ovulation [1]; 500 μg s.c. in corn oil
  number of animals ovulating: 6/20
  percent inhibition of ovulation: 70%
Ovulation [1]; 1000 μg s.c. in corn oil
  number of animals ovulating: 1/14
  percent inhibition of ovulation: 93%

## [D-pGlu^1, D-Phe^2, D-Trp^3,6 ]-LH-RH
LH-RH
  IDR50 (inhibitory molar dose ratio antagonist/LH-RH): 3/1
Ovulation [2]
  effective dose for in vivo inhibition of ovulation: 20 to 25 mg

## Nal(1)^3 -LH-RH
[3]
  potency as LH releasing agent relative to LH-RH: 187.1%
